US8492374B2, “Azaazulene compounds” (Industrial Technology Research Institute, priority 2009, dated 2013)

What was measured:
KDR kinase = biological target: T1, KDR kinase (Homo sapiens, UniProt P35968); assay: KDR kinase DELFIA assay (HTScan VEGFR-2 Kinase Assay Kit); assay type: biochemical; conditions: 20 uM ATP; for inhibition at 1 µM: 1 uM compound, read-out: Kinases inhibitory activities against KDR kinase, 1 uM; for inhibition at 0.1 µM: 0.1 uM compound, read-out: Kinases inhibitory activities against KDR kinase, 0.1 uM
T1 construct: human VEGFR-2 (Val789-Val1356); GST (N); purchased Cell Signaling Technology HTScan VEGFR-2 Kinase Assay Kit; host or cells: baculovirus expression system
Protocol: (§1) Azaazulene Compounds of this invention were treated for their efficacy in inhibiting activities of FLT-3, c-KIT and KDR kinases by biochemical DELFIA (Dissociation Enhanced Lanthanide FIA) assays according to the procedure described below. The assays were conducted by, Division of Cell Engineering, Biomedical Engineering Research Laboratories, Industrial Technology Research Institute, Bldg. 53, 195, sec. 4, Chung Hsing Rd. Chutung, Hsinchu, Taiwan 310, R.O.C.
The KDR assay was conducted following the protocol described in Protocol for HTScan™ VEGFR-2 Kinase Assay Kit (Cell Signaling Technology™).

c-KIT kinase = biological target: T2, c-KIT kinase (Homo sapiens, UniProt P10721); assay: c-KIT kinase DELFIA assay (HTScan c-KIT Kinase Assay Kit); assay type: biochemical; conditions: 20 uM ATP; for inhibition at 0.1 µM: 0.1 uM compound; for inhibition at 1 µM: 1 uM compound
T2 construct: human c-KIT (Thr544-Val976); GST (N); purchased Cell Signaling Technology HTScan c-KIT Kinase Assay Kit; host or cells: baculovirus expression system
Protocol: as §1
The c-KIT assay was conducted following the protocol described in Protocol for HTScan® c-KIT Kinase Assay Kit (Cell Signaling Technology®).

[1] = test system: MV4-11 (FLT3-ITD) cell line; assay: In vitro cell activity assay (MTT cell viability, 72 hours); assay type: cell-based; conditions: Homo sapiens, 72 hours at 37° C., 10,000 cells per well, read-out: IC50 against MV4-11
Outline: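 Compound serial dilutions applied to MV4-11 (FLT3-ITD) cells, 10,000 per well, for 72 hours at 37° C. Viability by MTT, formazan dissolved in DMSO, absorbance at 600 nm; IC50 by nonlinear regression as concentration halving absorbance versus untreated cells.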

FLT-3 kinase = biological target: T3, FLT-3 kinase (Homo sapiens, UniProt P36888); assay: FLT-3 kinase DELFIA assay (HTScan FLT-3 Kinase Assay Kit); assay type: biochemical; conditions: 20 uM ATP; for inhibition at 0.1 µM: 0.1 uM compound; for inhibition at 1 µM: 1 uM compound
T3 construct: human FLT-3 (Arg571-Ser993); GST (N); purchased Cell Signaling Technology HTScan FLT-3 Kinase Assay Kit; host or cells: baculovirus expression system
T3 sequence (P36888 571-993): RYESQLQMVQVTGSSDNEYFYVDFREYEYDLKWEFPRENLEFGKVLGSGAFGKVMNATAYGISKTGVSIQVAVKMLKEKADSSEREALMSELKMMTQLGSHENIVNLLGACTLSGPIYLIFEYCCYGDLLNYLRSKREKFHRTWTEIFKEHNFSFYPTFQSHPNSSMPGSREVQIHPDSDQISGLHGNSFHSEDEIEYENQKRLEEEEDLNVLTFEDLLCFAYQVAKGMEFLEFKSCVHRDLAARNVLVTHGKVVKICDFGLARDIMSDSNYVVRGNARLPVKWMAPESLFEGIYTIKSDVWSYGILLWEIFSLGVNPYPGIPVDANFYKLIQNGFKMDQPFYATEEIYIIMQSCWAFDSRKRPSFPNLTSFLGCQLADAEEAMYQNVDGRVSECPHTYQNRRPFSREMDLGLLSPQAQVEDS

T2 sequence (P10721 544-976): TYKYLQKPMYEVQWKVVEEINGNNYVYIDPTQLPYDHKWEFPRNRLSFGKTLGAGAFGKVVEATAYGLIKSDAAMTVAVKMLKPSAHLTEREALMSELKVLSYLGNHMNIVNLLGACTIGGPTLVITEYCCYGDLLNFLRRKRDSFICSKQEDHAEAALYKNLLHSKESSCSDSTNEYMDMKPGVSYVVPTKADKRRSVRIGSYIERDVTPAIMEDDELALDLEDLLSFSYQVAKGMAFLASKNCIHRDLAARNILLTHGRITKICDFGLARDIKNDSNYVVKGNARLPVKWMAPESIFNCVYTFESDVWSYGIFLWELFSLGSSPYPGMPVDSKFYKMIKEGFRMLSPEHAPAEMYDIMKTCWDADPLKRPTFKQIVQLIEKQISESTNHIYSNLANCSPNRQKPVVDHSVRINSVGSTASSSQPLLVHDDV
T1 sequence (P35968 789-1356): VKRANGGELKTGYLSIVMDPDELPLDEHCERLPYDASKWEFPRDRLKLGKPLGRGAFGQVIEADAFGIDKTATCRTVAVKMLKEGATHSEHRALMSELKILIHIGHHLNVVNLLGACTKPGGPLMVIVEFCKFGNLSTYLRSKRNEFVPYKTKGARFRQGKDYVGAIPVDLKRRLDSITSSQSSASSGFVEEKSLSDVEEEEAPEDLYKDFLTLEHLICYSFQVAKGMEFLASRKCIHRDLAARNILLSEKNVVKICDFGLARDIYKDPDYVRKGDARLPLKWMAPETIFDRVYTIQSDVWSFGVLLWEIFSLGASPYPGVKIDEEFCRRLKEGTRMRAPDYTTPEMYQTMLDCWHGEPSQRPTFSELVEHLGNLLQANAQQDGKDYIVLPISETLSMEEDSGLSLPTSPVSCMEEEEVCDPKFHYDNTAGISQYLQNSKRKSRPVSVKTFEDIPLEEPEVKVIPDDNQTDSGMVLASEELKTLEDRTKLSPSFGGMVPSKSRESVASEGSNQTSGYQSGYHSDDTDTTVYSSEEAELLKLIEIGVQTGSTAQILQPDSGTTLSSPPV

| SMILES | inhibition at 1 µM (KDR kinase) | inhibition at 0.1 µM (c-KIT kinase) | inhibition at 1 µM (c-KIT kinase) | IC50 [1] | inhibition at 0.1 µM (FLT-3 kinase) | inhibition at 1 µM (FLT-3 kinase) | inhibition at 0.1 µM (KDR kinase) |
| --- | --- | --- | --- | --- | --- | --- | --- |
| O=c1[nH]c2cccccc-2c1-c1nc2cc(F)ccc2[nH]1 [Compound B2] | 94.5% | 6.4% | 57.9% | 1 to 5 µM | 18.9% | 59.9% | 78.3% |
| O=c1[nH]c2cccccc-2c1-c1nc2cc(C(F)(F)F)ccc2[nH]1 [Compound B4] | 17.8% | 5% | 37.6% | 1 to 5 µM | 13.7% | 37.1% | 14.4% |
| O=c1[nH]c2cccccc-2c1-c1nc2cc([N+](=O)[O-])ccc2[nH]1 [Compound B5] | 45.3% | 15.2% | 56.8% | 1.3 µM | 12.8% | 27.1% | 31.7% |
| O=C(O)c1ccc2[nH]c(-c3c4cccccc-4[nH]c3=O)nc2c1 [Compound B7] | 46.1% | 34.8% | 57.3% | > 5 µM | – | 8.7% | 20.2% |
| O=c1[nH]c2cccccc-2c1-c1cn2ccccc2n1 [Compound B9] | 13.2% | 16% | 24.4% | 1 to 5 µM | 5.8% | 19.1% | 0.5% |

Other lines, results leading:

| inhibition at 1 µM (KDR kinase) | inhibition at 0.1 µM (c-KIT kinase) | inhibition at 1 µM (c-KIT kinase) | IC50 [1] | inhibition at 0.1 µM (FLT-3 kinase) | inhibition at 1 µM (FLT-3 kinase) | inhibition at 0.1 µM (KDR kinase) | SMILES |
| --- | --- | --- | --- | --- | --- | --- | --- |
| 3.7% | 31.2% | 41.1% | 1 to 5 µM | 8.4% | 10.4% | – | CCN(CC)CCn1c2cccccc-2c(-c2nc3ccccc3[nH]2)c1=O [Compound B1] |
| 63.3% | 32.6% | 62.6% | 0.916 µM | 12.8% | 45.1% | 29.7% | Nc1ccc2[nH]c(-c3c4cccccc-4[nH]c3=O)nc2c1 [Compound B6] |
| 63.8% | 42.2% | 75.5% | ~0.5 µM | 9.8% | 68.5% | 15.9% | O=c1[nH]c2cccccc-2c1-c1nc2cc(O)ccc2[nH]1 [Compound B8] |
